Results taken from patent US20130131043A1, “PYRAZOLE COMPOUNDS AS JAK INHIBITORS” (priority 2010, published 2013).

Legend:
[1] = biological target: T1, JAK3 (Homo sapiens, UniProt P52333); test: Kinobeads assay, JAK3 (competition binding in cell lysate, dot blot detection); conditions: mixed Molt4/Ramos lysate
T1 construct: endogenous in cells; host or cells: Molt4 (ATCC CRL-1582) and Ramos (ATCC CRL-1596) cell lysate; mixed Molt4/Ramos lysate 1:2
T1 sequence (P52333 1-1124): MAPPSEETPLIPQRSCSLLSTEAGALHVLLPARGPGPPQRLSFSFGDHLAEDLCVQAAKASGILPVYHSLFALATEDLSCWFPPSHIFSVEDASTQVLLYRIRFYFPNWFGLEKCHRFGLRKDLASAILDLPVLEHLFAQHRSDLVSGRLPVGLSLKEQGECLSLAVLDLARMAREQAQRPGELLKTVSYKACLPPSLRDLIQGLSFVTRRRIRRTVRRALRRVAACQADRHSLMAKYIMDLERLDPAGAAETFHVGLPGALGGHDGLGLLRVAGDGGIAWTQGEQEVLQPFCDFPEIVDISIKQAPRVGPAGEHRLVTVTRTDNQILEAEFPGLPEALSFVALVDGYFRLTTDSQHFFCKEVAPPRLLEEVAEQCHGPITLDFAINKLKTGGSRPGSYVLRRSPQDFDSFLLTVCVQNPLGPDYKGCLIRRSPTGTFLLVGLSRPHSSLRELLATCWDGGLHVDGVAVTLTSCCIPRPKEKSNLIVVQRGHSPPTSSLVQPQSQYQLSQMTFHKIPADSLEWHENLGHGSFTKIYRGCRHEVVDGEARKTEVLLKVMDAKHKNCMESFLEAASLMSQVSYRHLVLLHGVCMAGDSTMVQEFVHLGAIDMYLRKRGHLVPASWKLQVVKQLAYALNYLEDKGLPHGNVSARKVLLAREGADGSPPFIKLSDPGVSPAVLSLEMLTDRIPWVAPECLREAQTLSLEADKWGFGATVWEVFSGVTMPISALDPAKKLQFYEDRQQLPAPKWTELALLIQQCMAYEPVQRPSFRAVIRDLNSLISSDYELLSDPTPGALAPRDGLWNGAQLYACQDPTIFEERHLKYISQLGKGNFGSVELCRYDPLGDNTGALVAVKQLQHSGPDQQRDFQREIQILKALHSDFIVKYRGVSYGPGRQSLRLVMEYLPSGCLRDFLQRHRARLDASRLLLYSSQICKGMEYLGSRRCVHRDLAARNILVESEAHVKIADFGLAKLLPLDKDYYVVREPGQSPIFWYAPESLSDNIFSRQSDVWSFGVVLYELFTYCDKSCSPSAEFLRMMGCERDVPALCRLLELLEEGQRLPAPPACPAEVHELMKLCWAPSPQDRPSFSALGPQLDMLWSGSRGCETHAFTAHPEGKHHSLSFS
Protocol: (§1) The compounds of the present invention as described in the previous examples were tested in a Kinobeads™ assay as described for ZAP-70 (WO-A 2007/137867). Briefly, test compounds (at various concentrations) and the affinity matrix with the immobilized aminopyrido-pyrimidine ligand 24 were added to cell lysate aliquots and allowed to bind to the proteins in the lysate sample. After the incubation time the beads with captured proteins were separated from the lysate. Bound proteins were then eluted and the presence of JAK2 and JAK3 was detected and quantified using specific antibodies in a dot blot procedure and the Odyssey infrared detection system. Dose response curves for individual kinases were generated and IC50 values calculated. Kinobeads™ assays for ZAP-70 (WO-A 2007/137867) and for kinase selectivity profiling (WO-A 2006/134056) have been previously described.
(§2) 5×DP buffer: 250 mM Tris-HCl pH 7.4, 25% Glycerol, 7.5 mM MgCl2, 750 mM NaCl, 5 mM Na3VO4; filter the 5×DP buffer through a 0.22 μm filter and store in aliquots at −80° C. The 5×DP buffer is diluted with H2O to 1×DP buffer containing 1 mM DTT and 25 mM NaF.
(§3) Stock solutions of test compounds were prepared in DMSO. In a 96 well plate 30 μL solution of diluted test compounds at 5 mM in DMSO were prepared. Starting with this solution a 1:3 dilution series (9 steps) was prepared. For control experiments (no test compound) a buffer containing 2% DMSO was used.
(§4) Molt4 cells (ATCC catalogue number CRL-1582) and Ramos cells (ATCC catalogue number CRL-1596) were grown in 1 L Spinner flasks (Integra Biosciences, #182101) in suspension in RPMI 1640 medium (Invitrogen, #21875-034) supplemented with 10% Fetal Bovine Serum (Invitrogen) at a density between 0.15×10^6 and 1.2×10^6 cells/mL. Cells were harvested by centrifugation, washed once with 1×PBS buffer (Invitrogen, #14190-094) and cell pellets were frozen in liquid nitrogen and subsequently stored at −80° C. Cells were homogenized in a Potter S homogenizer in lysis buffer: 50 mM Tris-HCl, 0.8% NP40, 5% glycerol, 150 mM NaCl, 1.5 mM MgCl2, 25 mM NaF, 1 mM sodium vanadate, 1 mM DTT, pH 7.5. One complete EDTA-free tablet (protease inhibitor cocktail, Roche Diagnostics, 1873580) per 25 mL buffer was added. The material was dounced 10 times using a mechanized POTTER S, transferred to 50 mL falcon tubes, incubated for 30 minutes on ice and spun down for 10 minutes at 20,000 g at 4° C. (10,000 rpm in Sorvall SLA600, precooled). The supernatant was transferred to an ultracentrifuge (UZ)-polycarbonate tube (Beckmann, 355654) and spun for 1 hour at 100.000 g at 4° C. (33.500 rpm in Ti50.2, precooled). The supernatant was transferred again to a fresh 50 mL falcon tube, the protein concentration was determined by a Bradford assay (BioRad) and samples containing 50 mg of protein per aliquot were prepared. The samples were immediately used for experiments or frozen in liquid nitrogen and stored frozen at −80° C.
(§5) Cell lysate (approximately 50 mg protein per plate) was thawed in a water bath at room temperature and then stored on ice. To the thawed cell lysate 1×DP 0.8% NP40 buffer containing protease inhibitors (1 tablet for 25 mL buffer; EDTA-free protease inhibitor cocktail; Roche Diagnostics 1873580) was added in order to reach a final protein concentration of 10 mg/mL total protein. The diluted cell lysate was stored on ice. Mixed Molt4/Ramos lysate was prepared by combining one volume of Molt4 lysate and two volumes of Ramos lysate (ratio 1:2).
(§6) Plates were sealed and incubated for 3 hours in a cold room on a plate shaker (Heidolph tiramax 1000) at 750 rpm. Afterwards the plate was washed 3 times with 230 μL washing buffer (1×DP 0.4% NP40). The filter plate was placed on top of a collection plate (Greiner bio-one, PP-microplate 96 well V-shape, 65120) and the beads were then eluted with 20 μL of sample buffer (100 mM Tris, pH 7.4, 4% SDS, 0.00025% bromophenol blue, 20% glycerol, 50 mM DTT). […]

[2] = biological target: T2, JAK2 (Homo sapiens, UniProt O60674); test: Kinobeads assay, JAK2 (competition binding in cell lysate, dot blot detection); conditions: mixed Molt4/Ramos lysate
T2 construct: endogenous in cells; host or cells: Molt4 (ATCC CRL-1582) and Ramos (ATCC CRL-1596) cell lysate; mixed Molt4/Ramos lysate 1:2
T2 sequence (O60674 whole entry): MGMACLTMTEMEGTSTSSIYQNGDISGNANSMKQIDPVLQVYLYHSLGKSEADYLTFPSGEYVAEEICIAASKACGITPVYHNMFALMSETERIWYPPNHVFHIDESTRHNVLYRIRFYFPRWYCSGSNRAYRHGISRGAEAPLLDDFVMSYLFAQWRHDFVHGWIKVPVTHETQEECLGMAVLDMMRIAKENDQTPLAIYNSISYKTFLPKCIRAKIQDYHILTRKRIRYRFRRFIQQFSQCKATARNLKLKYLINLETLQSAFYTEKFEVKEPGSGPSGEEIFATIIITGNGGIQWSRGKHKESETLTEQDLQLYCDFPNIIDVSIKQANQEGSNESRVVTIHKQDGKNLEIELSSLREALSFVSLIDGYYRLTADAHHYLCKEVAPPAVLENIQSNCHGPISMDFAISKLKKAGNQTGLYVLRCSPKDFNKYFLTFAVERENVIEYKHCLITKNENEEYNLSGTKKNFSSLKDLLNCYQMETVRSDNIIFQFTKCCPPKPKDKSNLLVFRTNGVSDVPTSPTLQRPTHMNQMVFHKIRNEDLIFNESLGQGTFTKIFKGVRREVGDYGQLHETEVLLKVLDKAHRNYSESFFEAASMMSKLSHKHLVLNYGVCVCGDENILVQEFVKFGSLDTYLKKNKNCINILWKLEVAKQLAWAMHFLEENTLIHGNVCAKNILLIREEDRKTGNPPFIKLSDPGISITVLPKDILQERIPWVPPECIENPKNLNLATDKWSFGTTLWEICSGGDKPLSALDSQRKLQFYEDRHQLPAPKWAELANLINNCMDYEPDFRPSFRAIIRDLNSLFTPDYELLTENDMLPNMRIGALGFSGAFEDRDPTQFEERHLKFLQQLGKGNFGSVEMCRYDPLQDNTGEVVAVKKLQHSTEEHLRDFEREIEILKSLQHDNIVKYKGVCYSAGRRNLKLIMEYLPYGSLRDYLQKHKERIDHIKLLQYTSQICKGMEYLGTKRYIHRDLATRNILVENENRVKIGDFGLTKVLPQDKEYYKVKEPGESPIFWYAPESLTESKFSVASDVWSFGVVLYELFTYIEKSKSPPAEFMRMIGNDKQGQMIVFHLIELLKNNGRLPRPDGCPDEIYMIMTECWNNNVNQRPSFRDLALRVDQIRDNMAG
Protocol: as §1, §2, §3, §4, §5, §6

| Structure (SMILES) | IC50 [1] [nM] | IC50 [2] [nM] |
| --- | --- | --- |
| Cn1cc(Nc2ncc3cnn(C4CCCN(C(=O)CC#N)C4)c3n2)cn1 (stereo not drawn) [Example 25, 3-(3-(6-((1-methyl-1H-pyrazol-4-yl)amino)-1H-pyrazolo[3,4-d]pyrimidin-1-yl)piperidin-1-yl)-3-oxopropanenitrile] | 100 to 1000 | > 10000 |
| COCCC(=O)N1CCCC(Cn2ncc3cnc(Nc4cnn(C)c4)nc32)C1 (stereo not drawn) [Example 27, 3-methoxy-1-(3-((6-((1-methyl-1H-pyrazol-4-yl)amino)-1H-pyrazolo[3,4-d]pyrimidin-1-yl)methyl)piperidin-1-yl)propan-1-one] | 100 to 1000 | 1000 to 10000 |
| Cn1cc(Nc2ncc3cnn(CC4CCCN(C(=O)C5CCOCC5)C4)c3n2)cn1 (stereo not drawn) [Example 28, (3-((6-((1-methyl-1H-pyrazol-4-yl)amino)-1H-pyrazolo[3,4-d]pyrimidin-1-yl)methyl)piperidin-1-yl)(tetrahydro-2H-pyran-4-yl)methanone] | 100 to 1000 | > 10000 |
| CN(C)CC(=O)N1CCCC(Cn2ncc3cnc(Nc4cnn(C)c4)nc32)C1 (stereo not drawn) [Example 29, 2-(dimethylamino)-1-(3-((6-((1-methyl-1H-pyrazol-4-yl)amino)-1H-pyrazolo[3,4-d]pyrimidin-1-yl)methyl)piperidin-1-yl)ethanone] | 100 to 1000 | > 10000 |
| Cn1cc(Nc2ncc3cnn(CCC4CCCNC4)c3n2)cn1 (stereo not drawn) [Example 30, N-(1-methyl-1H-pyrazol-4-yl)-1-(2-(piperidin-3-yl)ethyl)-1H-pyrazolo[3,4-d]pyrimidin-6-amine] | 100 to 1000 | > 10000 |
| Cn1cc(Nc2ncc3cnn(CCC4CCCN(S(C)(=O)=O)C4)c3n2)cn1 (stereo not drawn) [Example 34, N-(1-methyl-1H-pyrazol-4-yl)-1-(2-(1-(methylsulfonyl)piperidin-3-yl)ethyl)-1H-pyrazolo[3,4-d]pyrimidin-6-amine] | 100 to 1000 | 1000 to 10000 |
| CCOC(=O)N1CCCC(Cn2ncc3cnc(Nc4cnn(C)c4)nc32)C1 (stereo not drawn) [Example 36, ethyl 3-((6-((1-methyl-1H-pyrazol-4-yl)amino)-1H-pyrazolo[3,4-d]pyrimidin-1-yl)methyl)piperidine-1-carboxylate] | 100 to 1000 | > 10000 |
| COC(=O)N1CCCC(Cn2ncc3cnc(Nc4cnn(C)c4)nc32)C1 (stereo not drawn) [Example 38, methyl 3-((6-((1-methyl-1H-pyrazol-4-yl)amino)-1H-pyrazolo[3,4-d]pyrimidin-1-yl)methyl)piperidine-1-carboxylate] | 100 to 1000 | > 10000 |

Other lines, results leading:

| IC50 [1] [nM] | IC50 [2] [nM] | Structure (SMILES) |
| --- | --- | --- |
| < 100 | > 10000 | COCC(=O)N1CCCC(Cn2ncc3cnc(Nc4cnn(C)c4)nc32)C1 (stereo not drawn) [Example 21, 2-methoxy-1-(3-((6-((1-methyl-1H-pyrazol-4-yl)amino)-1H-pyrazolo[3,4-d]pyrimidin-1-yl)methyl)piperidin-1-yl)ethanone] |
| 100 to 1000 | 1000 to 10000 | CC(=O)NC1CCC(n2ncc3cnc(Nc4cnn(C)c4)nc32)CC1 (stereo not drawn) [Example 22, N-(4-(6-((1-methyl-1H-pyrazol-4-yl)amino)-1H-pyrazolo[3,4-d]pyrimidin-1-yl)cyclohexyl)acetamide] |
| < 100 | 1000 to 10000 | Cn1cc(Nc2ncc3cnn(CC4CCCN(C(=O)CCS(C)(=O)=O)C4)c3n2)cn1 (stereo not drawn) [Example 23, 1-(3-((6-((1-methyl-1H-pyrazol-4-yl)amino)-1H-pyrazolo[3,4-d]pyrimidin-1-yl)methyl)piperidin-1-yl)-3-(methylsulfonyl)propan-1-one] |
| 100 to 1000 | 1000 to 10000 | Cn1cc(Nc2ncc3cnn(C4CCN(C(=O)CC#N)CC4)c3n2)cn1 [Example 24, 3-(4-(6-((1-methyl-1H-pyrazol-4-yl)amino)-1H-pyrazolo[3,4-d]pyrimidin-1-yl)piperidin-1-yl)-3-oxopropanenitrile] |
| < 100 | 1000 to 10000 | Cn1cc(Nc2ncc3cnn(CC4CCCN(C(=O)CC#N)C4)c3n2)cn1 (stereo not drawn) [Example 26, 3-(3-((6-((1-methyl-1H-pyrazol-4-yl)amino)-1H-pyrazolo[3,4-d]pyrimidin-1-yl)methyl)piperidin-1-yl)-3-oxopropanenitrile] |
| < 100 | 1000 to 10000 | CCS(=O)(=O)N1CCCC(Cn2ncc3cnc(Nc4cnn(C)c4)nc32)C1 (stereo not drawn) [Example 31, 1-((1-(ethylsulfonyl)piperidin-3-yl)methyl)-N-(1-methyl-1H-pyrazol-4-yl)-1H-pyrazolo[3,4-d]pyrimidin-6-amine] |
| < 100 | 1000 to 10000 | CC(C)S(=O)(=O)N1CCCC(Cn2ncc3cnc(Nc4cnn(C)c4)nc32)C1 (stereo not drawn) [Example 32, 1-((1-(isopropylsulfonyl)piperidin-3-yl)methyl)-N-(1-methyl-1H-pyrazol-4-yl)-1H-pyrazolo[3,4-d]pyrimidin-6-amine] |
| < 100 | 1000 to 10000 | Cn1cc(Nc2ncc3cnn(CC4CCCN(S(=O)(=O)C5CC5)C4)c3n2)cn1 (stereo not drawn) [Example 33, 1-((1-(cyclopropylsulfonyl)piperidin-3-yl)methyl)-N-(1-methyl-1H-pyrazol-4-yl)-1H-pyrazolo[3,4-d]pyrimidin-6-amine] |
| < 100 | > 10000 | COCCN1CCCC(Cn2ncc3cnc(Nc4cnn(C)c4)nc32)C1 (stereo not drawn) [Example 35, 1-((1-(2-methoxyethyl)piperidin-3-yl)methyl)-N-(1-methyl-1H-pyrazol-4-yl)-1H-pyrazolo[3,4-d]pyrimidin-6-amine] |
| < 100 | > 10000 | CSCCN1CCCC(Cn2ncc3cnc(Nc4cnn(C)c4)nc32)C1 (stereo not drawn) [Example 37, N-(1-methyl-1H-pyrazol-4-yl)-1-((1-(2-(methylthio)ethyl)piperidin-3-yl)methyl)-1H-pyrazolo[3,4-d]pyrimidin-6-amine] |
